Measurements from ChEMBL document CHEMBL4414666, “Structure-Activity Relationships of Pentacyclic Triterpenoids as Inhibitors of Cyclooxygenase and Lipoxygenase Enzymes” (J Nat Prod, 2019).
pIC50: −log10 of the molar value.

What was measured:
[1] = biological target: T1, Polyunsaturated fatty acid 5-lipoxygenase (Homo sapiens, UniProt P09917); test: Inhibition of human recombinant 5-LOX expressed in insect cells assessed as decrease in production of 5-HPETE and 5-HETE using arachidonic acid as substrate preincubated for 5 mins followed by substrate addition measured after 20 mins in dark by ferric ion oxidation-xylenol orange method; details: for pIC50: read-out: IC50
T1 sequence (P09917 whole entry): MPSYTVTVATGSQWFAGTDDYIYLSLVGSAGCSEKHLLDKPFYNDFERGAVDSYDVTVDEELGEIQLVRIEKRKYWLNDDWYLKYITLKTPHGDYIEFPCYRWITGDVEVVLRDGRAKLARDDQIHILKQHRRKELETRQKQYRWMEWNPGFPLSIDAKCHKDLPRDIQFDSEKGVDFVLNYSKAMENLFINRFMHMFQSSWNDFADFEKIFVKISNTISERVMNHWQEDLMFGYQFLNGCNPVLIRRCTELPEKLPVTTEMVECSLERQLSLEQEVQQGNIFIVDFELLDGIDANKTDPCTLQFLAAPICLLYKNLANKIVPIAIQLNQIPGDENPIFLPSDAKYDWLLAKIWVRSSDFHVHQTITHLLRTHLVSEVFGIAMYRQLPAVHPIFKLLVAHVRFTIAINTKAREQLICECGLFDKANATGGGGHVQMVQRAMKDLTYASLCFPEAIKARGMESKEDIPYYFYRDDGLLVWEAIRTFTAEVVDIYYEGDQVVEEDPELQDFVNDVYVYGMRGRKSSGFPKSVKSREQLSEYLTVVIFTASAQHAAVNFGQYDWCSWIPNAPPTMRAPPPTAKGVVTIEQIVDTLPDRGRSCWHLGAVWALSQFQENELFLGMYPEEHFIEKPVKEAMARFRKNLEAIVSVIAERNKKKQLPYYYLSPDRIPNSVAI

[2] = biological target: T2, Polyunsaturated fatty acid 5-lipoxygenase (Homo sapiens) (UniProt P09917); test: Inhibition of human recombinant 5-LOX expressed in insect cells assessed residual activity using arachidonic acid at 42 uM as substrate preincubated for 5 mins followed by substrate addition measured after 20 mins in dark by ferric ion oxidation-xylenol orange method relative to control
T2 sequence (whole entry): T1 sequence (P09917 whole entry)

[3] = biological target: T3, Polyunsaturated fatty acid lipoxygenase ALOX15B (Homo sapiens, UniProt O15296); test: (§1) Inhibition of human recombinant N-terminal His-tagged 15-LOX2 expressed in Escherichia coli using arachidonic acid as substrate preincubated for 5 mins followed by substrate addition measured after 20 mins in dark by ferric ion oxidation-xylenol orange assay; details: for pIC50: read-out: IC50
T3 sequence (O15296 whole entry): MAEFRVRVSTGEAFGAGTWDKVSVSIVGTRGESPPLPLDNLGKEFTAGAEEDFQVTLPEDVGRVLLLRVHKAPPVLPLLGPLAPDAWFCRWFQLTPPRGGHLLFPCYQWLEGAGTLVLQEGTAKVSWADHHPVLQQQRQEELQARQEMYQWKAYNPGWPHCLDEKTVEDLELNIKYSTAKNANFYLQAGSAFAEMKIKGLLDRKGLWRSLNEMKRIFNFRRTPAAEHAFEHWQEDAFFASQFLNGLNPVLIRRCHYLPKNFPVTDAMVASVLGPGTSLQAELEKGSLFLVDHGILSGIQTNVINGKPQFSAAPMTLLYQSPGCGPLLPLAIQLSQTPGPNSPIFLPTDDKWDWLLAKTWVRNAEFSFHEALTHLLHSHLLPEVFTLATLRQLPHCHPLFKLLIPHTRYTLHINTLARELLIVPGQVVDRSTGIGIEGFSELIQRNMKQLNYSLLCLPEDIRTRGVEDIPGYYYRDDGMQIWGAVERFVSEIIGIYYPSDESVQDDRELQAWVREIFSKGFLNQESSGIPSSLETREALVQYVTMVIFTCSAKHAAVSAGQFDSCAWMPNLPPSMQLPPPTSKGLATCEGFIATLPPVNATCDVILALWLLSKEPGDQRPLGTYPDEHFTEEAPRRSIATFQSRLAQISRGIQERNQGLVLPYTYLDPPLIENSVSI

[4] = biological target: T4, Polyunsaturated fatty acid lipoxygenase ALOX15B (Homo sapiens) (UniProt O15296); test: as §1, with “coli assessed as residual activity at 42 uM” for “coli”, “assay relative to control” for “assay”
T4 sequence (whole entry): T3 sequence (O15296 whole entry)

[5] = biological target: T5, Prostaglandin G/H synthase 1 (Ovis aries, UniProt P05979);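 further: recombinant ovine COX1 enzyme, PGE2 formed from arachidonic acid quantified by LC-MS, 10 min inhibitor preincubation then 45 min reaction, inhibition seen as reduced PGE2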
T5 sequence (P05979 whole entry): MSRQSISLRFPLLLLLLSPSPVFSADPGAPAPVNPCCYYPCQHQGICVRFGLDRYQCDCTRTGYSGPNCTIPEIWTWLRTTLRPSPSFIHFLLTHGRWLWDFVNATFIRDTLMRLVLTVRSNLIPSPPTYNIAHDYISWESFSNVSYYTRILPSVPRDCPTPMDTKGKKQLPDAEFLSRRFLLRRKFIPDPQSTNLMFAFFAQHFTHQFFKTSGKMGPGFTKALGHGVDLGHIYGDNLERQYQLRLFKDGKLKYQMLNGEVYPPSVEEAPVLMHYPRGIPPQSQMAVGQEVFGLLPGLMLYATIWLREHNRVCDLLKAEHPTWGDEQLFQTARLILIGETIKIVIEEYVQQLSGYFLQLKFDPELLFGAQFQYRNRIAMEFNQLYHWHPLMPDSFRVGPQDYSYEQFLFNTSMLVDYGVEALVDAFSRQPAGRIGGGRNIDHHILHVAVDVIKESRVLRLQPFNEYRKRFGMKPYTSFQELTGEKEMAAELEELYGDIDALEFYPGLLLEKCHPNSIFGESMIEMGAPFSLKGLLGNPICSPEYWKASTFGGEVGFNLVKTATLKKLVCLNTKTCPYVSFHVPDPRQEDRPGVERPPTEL
Description: Inhibition of ovine recombinant COX1 assessed as decrease in formation of PGE2 using arachidonic acid as substrate preincubated for 10 mins followed by substrate addition measured after 45 mins by LC-MS analysis

[6] = biological target: T6, Prostaglandin G/H synthase 2 (Homo sapiens, UniProt P35354); test: biochemical; type: cell-based, Sf21; details: for IC50: sf21; for pIC50: read-out: IC50;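 on all read-outs here: recombinant enzyme produced in baculovirus-infected Sf21 cells, arachidonic acid substrate, PGE2 output quantified by LC-MS after 45 min, compounds preincubated 10 min beforehand, lower PGE2 means inhibition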
T6 sequence (P35354 whole entry): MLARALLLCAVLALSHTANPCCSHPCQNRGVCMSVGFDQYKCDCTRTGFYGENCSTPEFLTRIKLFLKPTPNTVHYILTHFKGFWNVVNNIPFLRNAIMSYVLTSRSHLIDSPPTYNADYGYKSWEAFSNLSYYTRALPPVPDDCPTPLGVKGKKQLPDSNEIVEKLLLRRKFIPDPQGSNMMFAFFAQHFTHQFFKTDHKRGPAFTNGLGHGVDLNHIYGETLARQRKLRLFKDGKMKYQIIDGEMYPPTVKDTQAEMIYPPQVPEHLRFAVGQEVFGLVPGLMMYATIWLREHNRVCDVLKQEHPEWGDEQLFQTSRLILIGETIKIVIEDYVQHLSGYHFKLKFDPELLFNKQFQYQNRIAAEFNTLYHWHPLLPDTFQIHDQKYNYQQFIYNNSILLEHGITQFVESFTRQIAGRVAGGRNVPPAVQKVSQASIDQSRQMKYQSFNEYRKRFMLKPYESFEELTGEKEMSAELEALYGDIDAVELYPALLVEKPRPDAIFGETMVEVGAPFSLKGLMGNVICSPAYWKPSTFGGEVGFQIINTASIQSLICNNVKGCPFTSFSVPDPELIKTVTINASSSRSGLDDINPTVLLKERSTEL
Description: Inhibition of human recombinant COX2 expressed in baculovirus infected sf21 cells assessed as decrease in PGE2 formation using arachidonic acid as substrate preincubated for 10 mins followed by substrate addition measured after 45 mins by LC-MS analysis

pIC50 [1]	Activity [2] [%]	pIC50 [3]	Activity [4] [%]	IC50 [5]	IC50 [6]	IC50 [3]	pIC50 [6]	IC50 [1]	Structure (SMILES)
< 4.40	73.3	< 4.40	97.2	Not Active	Not Active				CC1(C)CC[C@]2(C)CC[C@]3(C)C(=CC[C@@H]4[C@@]5(C)CC[C@H](O)C(C)(C)[C@@H]5CC[C@]43C)[C@@H]2C1 [beta-AMYRIN]
4.52	40.7		100	Not Active		Not Active	< 4.40		CC1(C)CC[C@]2(C(=O)O)CC[C@]3(C)C(=CC[C@@H]4[C@@]5(C)C[C@H](O)[C@H](O)[C@@](C)(C(=O)O)[C@@H]5CC[C@]43C)[C@@H]2C1
< 4.40	70.4		100	Not Active		Not Active	< 4.40		CC1(C)CC[C@]2(C)CC[C@]3(C)C(=CC(=O)[C@@H]4[C@@]5(C)CC[C@H](O)C(C)(C)[C@@H]5CC[C@]43C)[C@@H]2C1
	100		100	Not Active	Not Active	Not Active		Not Active	CC1(C)CC[C@]2(C(=O)O)CC[C@]3(C)C(=CC[C@@H]4[C@@]5(C)CC[C@H](O)[C@@](C)(C=O)[C@@H]5CC[C@]43C)[C@@H]2C1
	100		100	Not Active		Not Active	< 4.40	Not Active	C[C@H]1[C@H](C)CC[C@]2(C)CC[C@]3(C)C(=CC[C@@H]4[C@@]5(C)CCC(=O)C(C)(C)[C@@H]5CC[C@]43C)[C@H]12
< 4.40	60.7		100	Not Active	Not Active	Not Active			CC1(C)CC[C@]2(CO)CC[C@]3(C)C(=CC[C@@H]4[C@@]5(C)CC[C@H](O)C(C)(C)[C@@H]5CC[C@]43C)[C@@H]2C1 [ERYTHRODIOL]
< 4.40	55.5		100	Not Active	Not Active	Not Active			C[C@H]1[C@H](C)CC[C@]2(C)CC[C@]3(C)C(=CC[C@@H]4[C@@]5(C)CC[C@H](O)C(C)(C)[C@@H]5CC[C@]43C)[C@H]12
< 4.40	71.9		100	Not Active		Not Active	< 4.40		CC1(C)CC[C@]2(C(=O)O)CC[C@]3(C)C(=CC[C@@H]4[C@@]5(C)C[C@H](O)[C@H](O)[C@@](C)(CO)[C@@H]5CC[C@]43C)[C@@H]2C1
< 4.40	59.8	< 4.40	64.7	Not Active	Not Active				CC1(C)CC[C@]2(C(=O)O)CC[C@]3(C)C(=CC[C@@H]4[C@@]5(C)CC[C@H](O)[C@@](C)(CO)[C@@H]5CC[C@]43C)[C@@H]2C1 [HEDERAGENIN]

Structure (SMILES)	pIC50 [1]	Activity [2] [%]	pIC50 [3]	Activity [4] [%]	IC50 [5]	IC50 [6]	IC50 [3]	pIC50 [6]	IC50 [1]
CC1(C)[C@@H](O)CC[C@]2(C)[C@H]3C(=O)C=C4[C@@H]5C[C@@](C)(C(=O)O)CC[C@]5(C)CC[C@@]4(C)[C@]3(C)CC[C@@H]12 [ENOXOLONE]	4.61	28.3	< 4.40	98.6	Not Active			< 4.40	
CC1(C)[C@@H](O)CC[C@]2(C)[C@H]3CC=C4[C@@H]5C[C@@](C)(CO)CC[C@]5(C)CC[C@@]4(C)[C@]3(C)CC[C@@H]12	4.50	34.8		100	Not Active		Not Active	< 4.40	
CC1(C)[C@@H](O)CC[C@]2(C)[C@H]3C(=O)C=C4[C@@H]5C[C@@](C)(CO)CC[C@]5(C)CC[C@@]4(C)[C@]3(C)CC[C@@H]12	4.59	25.2		100	Not Active		Not Active	< 4.40	
